Results as given in patent US20020025347A1, “Treatment of diabetic nephropathy and microalbuminuria” (Shiva Biomedical, LLC, priority 1999, published 2002).
“Also recorded” adds a separate entry of the source. Counter-ions that a name gives are not always drawn.

How the values were obtained:
MEK2 = assay: High glucose-induced phosphorylation of MEK in mesangial cells (Western blot); type: cell-based, Murine; conditions: MES-13 cells
Procedure: (§1) Murine renal mesangial cells were used in these experiments. The mesangial cells (MES-13) were cloned from transgenic mice. The twenty-fifth passage of the originally plated cells was used in the experiments. MES-13 cells were grown in Dulbecco's Modified Eagle's Medium (DMEM) containing 15% fetal bovine serum (FBS), 1% streptomycin-penicillin mixture, fungizone 0.2 μg/mL, 44 mM NaHCO3 and 14 mM HEPES at 37° C. in a humid atmosphere containing 5% CO2 and 95% air. Subcultures were seeded from confluent stock cultures by trypsinization in Hanks balanced salt solution containing 0.5 mM EDTA and 0.025% trypsin and grown in DMEM containing 15% FBS for 24 hr to near confluence (80%). Near confluent cells were incubated with serum-free DMEM to arrest cell growth and synchronize cell cultures. After 24 hr, the media was changed to serum-free DMEM containing 5.5 mM (normal) or 30 mM (high) glucose and cells cultured for 5 days. Cells were then incubated with a salt of lithospermic acid at 25 μg/mL or 50 μg/mL for 24 hours. […] Protein concentration in cell lysate and culture media samples was determined by the method of Lowry with BSA as a standard (Lowry, O. H., et al., J. Biol. Chem. 193:265-275 (1951)). […] After washing, the antigen-antibody complexes were detected by enhanced chemiluminesence (Amersham International, England) and quantitated densitometry.

ERK2 = assay: High glucose-induced phosphorylation of ERK in mesangial cells (Western blot); type: cell-based, Murine; conditions: MES-13 cells, 30 mM glucose, 50 μg/mL
Procedure: as §1

[1] = system: STZ-induced diabetic rats; assay: Treatment of STZ-induced diabetic rats with a salt of lithospermic acid; type: in vivo, Sprague-Dawley rats
Procedure: Sprague-Dawley rats (3-4 months of age, 250-300 g) were housed individually in sterile microisolator cages in a Specific Pathogen Free animal care facility. Rats were fed standard Rat chow and water was available ad libitum. Animals were maintained in temperature (25° C.) and humidity (40%) controlled rooms with a 12-h light/12 h dark cycle. Rats were randomly assigned to three experimental groups: Group I, nondiabetic control (n=10), Group II, untreated diabetic (n=10); and Group III, salt of lithospermic acid-treated diabetic (n=10). Insulin dependent diabetes was induced by a single intravenous injection of freshly prepared streptozotocin (STZ) (50 mg/kg in 0.1 M citrate buffer, pH 4.5) (Schmidt, R. E., et al., Diabetes 45(3):284-290 (1996)). A rat was considered diabetic when the nonfasting plasma glucose level was greater than about 17 mmol/L, 3 days following injection of STZ. Eight weeks following the administration of STZ, animals were treated with a salt of lithospermic acid by intramuscularly injections once daily (20 mg salt of lithospermic acid/kg body weight) for 8 weeks. Body weights were recorded weekly before and throughout the treatment period. Twenty-four hour urine and glycosylated hemoglobin levels were determined at 8, 12 and 16 weeks after injection of STZ. Urine samples were centrifuged (3000 rpm for 10 min) and the supernatant analyzed for creatinine and protein levels using standard techniques (Matsuo, Y., et al., Pharmacology 50:1-8 (1995)).

TGF-β1 = assay: High glucose-induced TGF-β1 secretion from mesangial cells (Western blot); type: cell-based, Murine; conditions: MES-13 cells, 30 mM glucose, 25 or 50 μg/mL for 24 hours
Procedure: as §1

protein kinase C (PKC) = assay: High glucose-induced protein kinase C activity in mesangial cells; type: cell-based, Murine; conditions: MES-13 cells, 30 mM glucose 5 days, then 25 or 50 μg/mL for 24 hours
Procedure: Murine renal mesangial cells were used in these experiments. The mesangial cells (MES-13) were cloned from transgenic mice. The twenty-fifth passage of the originally plated cells was used in the experiments. MES-13 cells were grown in Dulbecco's Modified Eagle's Medium (DMEM) containing 15% fetal bovine serum (FBS), 1% streptomycin-penicillin mixture, fungizone 0.2 μg/mL, 44 mM NaHCO3 and 14 mM HEPES at 37° C. in a humid atmosphere containing 5% CO2 and 95% air. Subcultures were seeded from confluent stock cultures by trypsinization in Hanks balanced salt solution containing 0.5 mM EDTA and 0.025% trypsin and grown in DMEM containing 15% FBS for 24 hr to near confluence (80%). Near confluent cells were incubated with serum-free DMEM to arrest cell growth and synchronize cell cultures. After 24 hr, the media was changed to serum-free DMEM containing 5.5 mM (normal) or 30 mM (high) glucose and cells cultured for 5 days. […] The amount of PKC in lysates of cells cultured in presence of high glucose (30 mM) and normal glucose (control, 5.5 mM) was determined using a commercially available kit (Upstate Biotechnology, Lake Placid N.Y.). […] Assay squares were placed into vials and radioactivity determined by scintillation counting. PKC activity was expressed as pmol/min/protein. Significant differences between group means were determined using the unpaired or paired Student's t-test.

fibronectin = assay: High glucose-induced fibronectin synthesis and secretion from mesangial cells (Western blot); type: cell-based, Murine; conditions: MES-13 cells, 30 mM glucose, 50 μg/mL
Procedure: as §1

[2] = treated diabetic rats, 20 mg/kg intramuscularly once daily for 8 weeks

Structure (SMILES): O=C(/C=C/c1ccc(O)c2c1[C@H](C(=O)O)[C@@H](c1ccc(O)c(O)c1)O2)O[C@H](Cc1ccc(O)c(O)c1)C(=O)O [salt of lithospermic acid]
- phosphorylated MEK2 (MEK P) in high glucose (FIG. 7) (MEK2; high glucose, 50 μg/mL): approached control levels
- total amount of MEK2 (MEK2-T, phosphorylated and nonphosphorylated) (FIG. 8) (MEK2; regardless of glucose concentration or treatment): remained constant
- phosphorylated ERK2 in high glucose (FIG. 5) (ERK2): decrease in phosphorylated ERK2 to about control levels
- effect on blood glucose levels in diabetic rats ([1]; 20 mg/kg intramuscularly once daily for 8 weeks): did not significantly lower blood glucose levels
- urinary protein levels (FIG. 1) ([1]; 20 mg/kg intramuscularly once daily for 8 weeks, started 8 weeks after STZ, compared to untreated diabetic and nondiabetic control rats): significantly (p<0.001) lowered urinary protein levels; also recorded: approached the levels observed in control, nondiabetic rats
- HCT ([1]; treated diabetic rats): 37.44 ± 3.13%
- Hb ([1]; treated diabetic rats): 14.44 ± 0.87 g/dL
- MCH ([1]; treated diabetic rats): 21.13 ± 0.69 pg
- WBC ([1]; treated diabetic rats): 11.95 ± 4.66 × 10(3)
- Albumin [1, 2]: 1.75 ± 0.31 g/dL
- BUN [1, 2]: 28.1 ± 5.32 mg/dL
- Bilirubin [1, 2]: 1.14 ± 1.10 mg/dL
- Cholesterol [1, 2]: 47 ± 7.35 mg/dL
- Cl [1, 2]: 101.5 ± 2.65 mmol/L
- Creatinine [1, 2]: 0.6 ± 0.12 mg/dL
- D. Bil [1, 2]: 0.67 ± 0.7 mg/dL
- GOT [1, 2]: 239 ± 157 U/L
- GPT [1, 2]: 102.75 ± 73.74 U/L
- Glucose [1, 2]: 508.5 ± 160.4 mg/dL
- K [1, 2]: 19.53 ± 12.8 mmol/L
- Na [1, 2]: 130.3 ± 6.24 mmol/L
- Serum Protein [1, 2]: 6.28 ± 0.54 g/dL
- Uric Acid [1, 2]: 1.6 ± 1.07 mg/dL
- r-GTP [1, 2]: 2.75 ± 2.75 U/L
- HbAlc ([1]; treated diabetic rats, p < 0.01 vs. control): 8.59 ± 1.59 %
- TGF-β1 secretion in high glucose (FIG. 3) (TGF-β1): decreased high glucose-induced TGF-β1 secretion
- PKC activity in high glucose (FIG. 2) (protein kinase C (PKC)): decreased PKC activity
- fibronectin levels in high glucose (FIG. 4) (fibronectin): decreased fibronectin levels to about that of control levels
